Laboratory results published in PMC5766609 (Scientific Reports, 2018).
Read-outs that look alike come from different tables or passages of the source. Starred links: 1 amine or outer side, 2 acyl side, 3 side chain; linkers in the order of their positions; H or OH if unused. Non-standard residues stand in square brackets, D forms with d. Residues, ends and D or L forms follow the SMILES beside them. Groups on a side chain read outwards from the residue. No end group written: not given here. *: point of attachment. γGlu = O=C(O)[C@H](CCC(=O)[*:2])N[*:1]; Palmitoyl = CCCCCCCCCCCCCCCC(=O)*

Legend:
[1] = target: T1, human glucagon receptor (GCGR) (Homo sapiens, UniProt P47871); test: cAMP assay on CHO-JumpIn cells stably transfected with human glucagon receptor (HitHunter cAMP); assay type: cell-based; conditions: cAMP accumulation, CHO-JumpIn cells with human GCGR, value ± spread;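 note: peptides tested as 4-fold serial dilutions starting from a 2 µM solution, cells exposed 1 hr at RT in darkness, cAMP quantified against a cAMP standard curve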
T1 construct: expressed in transfected cells; host or cells: CHO-JumpIn cells, stably transfected

[2] = target: T2, human GLP-1 receptor (GLP1R) (Homo sapiens, UniProt P43220); test: cAMP assay on CHO-JumpIn cells stably transfected with human GLP-1 receptor (HitHunter cAMP); assay type: cell-based; conditions: value ± spread;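 note: peptides tested as 4-fold serial dilution series, cells exposed 1 hr at RT in the dark, cAMP quantified against a cAMP standard calibration curve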
T2 construct: expressed in transfected cells; host or cells: CHO-JumpIn cells, stably transfected
Experimental: Briefly, a 2 μM solution of peptide was prepared, and 4-fold serial dilutions were made. 150 nL of the above titration was then dispensed into an Optiplate384 using an Echo555. […] The HitHunter® cAMP Assay kit calibration curve was prepared following the manufacturer’s protocol (DiscoveRx-90-0075L). 30,000 cells/well were added to the peptides, spun briefly at 500 rpm for 15 s and incubated at RT in the dark for 1 hr. The assay was developed as per the manufacturer’s instructions. cAMP accumulation due to GLP1R agonism or GCGR agonism was measured using an EnVision platereader (PerkinElmer), and calibrated using the cAMP standard curve. Data were analyzed using Assay Data Analyzer (ADA).

[3] = target: glucagon receptor (human) (UniProt P47871)
[4] = target: human GLP-1 receptor (human) (UniProt P43220)
[5] = Table 2, buffer PBS, 0.1% BSA, 100 μM RO 20-1724, 20% serum, 1 hr at RT, read-out: EC50 GCGR
[6] = Table 2, cAMP accumulation, buffer PBS, 0.1% BSA, 100 μM RO 20-1724, 20% serum, 1 hr at RT, read-out: EC50 GLP1R

Chain of human GLP-1 receptor (human) (P43220 24-463): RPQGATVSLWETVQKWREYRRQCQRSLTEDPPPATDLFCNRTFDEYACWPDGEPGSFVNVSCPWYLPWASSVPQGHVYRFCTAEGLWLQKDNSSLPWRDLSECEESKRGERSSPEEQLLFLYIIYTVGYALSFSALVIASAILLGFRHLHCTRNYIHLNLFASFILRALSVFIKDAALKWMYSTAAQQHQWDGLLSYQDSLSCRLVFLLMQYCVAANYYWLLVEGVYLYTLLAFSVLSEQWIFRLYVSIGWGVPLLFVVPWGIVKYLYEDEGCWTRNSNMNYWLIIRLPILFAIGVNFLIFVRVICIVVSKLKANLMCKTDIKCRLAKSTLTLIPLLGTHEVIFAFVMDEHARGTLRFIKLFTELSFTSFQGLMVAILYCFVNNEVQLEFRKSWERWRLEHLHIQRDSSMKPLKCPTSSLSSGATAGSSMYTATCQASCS
T2 sequence (P43220 24-463): as above
Chain of glucagon receptor (human) (P47871 26-477): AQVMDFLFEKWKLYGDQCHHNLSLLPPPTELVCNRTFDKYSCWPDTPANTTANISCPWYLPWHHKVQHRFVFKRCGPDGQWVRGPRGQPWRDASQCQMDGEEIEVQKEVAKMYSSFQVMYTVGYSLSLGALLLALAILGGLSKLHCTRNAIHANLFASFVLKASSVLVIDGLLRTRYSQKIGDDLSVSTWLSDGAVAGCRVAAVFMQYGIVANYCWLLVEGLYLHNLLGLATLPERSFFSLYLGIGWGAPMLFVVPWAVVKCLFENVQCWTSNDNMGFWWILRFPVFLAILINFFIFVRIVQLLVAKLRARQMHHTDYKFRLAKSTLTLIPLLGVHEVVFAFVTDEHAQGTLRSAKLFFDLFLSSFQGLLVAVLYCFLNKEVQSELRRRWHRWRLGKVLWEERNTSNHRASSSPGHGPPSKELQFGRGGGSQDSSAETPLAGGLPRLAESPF
T1 sequence (P47871 26-477): as above

Molecule `CSCC[C@H](NC(=O)[C@H](CO)NC(=O)[C@@H](NC(=O)[C@H](CCSC)NC(=O)[C@@H](NC(=O)[C@H](Cc1ccccc1)NC(=O)[C@H](CC(=O)O)NC(=O)[C@H](CCC(N)=O)NC(=O)[C@H](C)NC(=O)[C@H](CCCNC(=N)N)NC(=O)[C@H](CCCNC(=N)N)NC(=O)[C@H](CO)NC(=O)[C@H](CC(=O)O)NC(=O)[C@H](CC(C)C)NC(=O)[C@H](Cc1ccc(O)cc1)NC(=O)[C@H](CCCCN)NC(=O)[C@H](CO)NC(=O)[C@H](Cc1ccc(O)cc1)NC(=O)[C@H](CC(=O)O)NC(=O)[C@H](CO)NC(=O)[C@@H](NC(=O)[C@H](Cc1ccccc1)NC(=O)[C@@H](NC(=O)CNC(=O)[C@H](CCC(N)=O)NC(=O)[C@H](CO)NC(=O)[C@@H](N)Cc1c[nH]cn1)[C@@H](C)O)[C@@H](C)O)C(C)C)[C@@H](C)O)C(=O)N[C@@H](CC(N)=O)C(=O)N[C@H](C(N)=O)[C@@H](C)O` [Peptide 26] has an EC50 [1, 5] of over 200 nM and an EC50 [2, 6] of 8.96 ± 1.84 nM.

With `CC[C@H](C)[C@H](NC(=O)[C@H](CC(C)C)NC(=O)[C@H](Cc1c[nH]c2ccccc12)NC(=O)[C@H](CC(=O)O)NC(=O)[C@@H](NC(=O)[C@H](Cc1ccccc1)NC(=O)[C@H](CC(=O)O)NC(=O)[C@H](CCC(N)=O)NC(=O)[C@H](C)NC(=O)[C@H](CCCNC(=N)N)NC(=O)[C@H](CCCNC(=N)N)NC(=O)[C@H](CO)NC(=O)[C@H](CC(=O)O)NC(=O)[C@H](CC(C)C)NC(=O)[C@H](Cc1ccc(O)cc1)NC(=O)[C@H](CCCCN)NC(=O)[C@H](CO)NC(=O)[C@H](Cc1ccc(O)cc1)NC(=O)[C@H](CC(=O)O)NC(=O)[C@H](CO)NC(=O)[C@@H](NC(=O)[C@H](Cc1ccccc1)NC(=O)[C@@H](NC(=O)CNC(=O)[C@H](CCC(N)=O)NC(=O)[C@H](CO)NC(=O)[C@@H](N)Cc1c[nH]cn1)[C@@H](C)O)[C@@H](C)O)C(C)C)C(=O)N[C@@H](CC(N)=O)C(=O)N[C@@H](CO)C(N)=O` [Peptide 28] the EC50 [1, 5] was 0.016 ± 0.001 nM and the EC50 [2, 6] was 0.007 ± 0.001 nM.

With `CSCC[C@H](NC(=O)[C@H](CC(C)C)NC(=O)[C@H](Cc1c[nH]c2ccccc12)NC(=O)[C@H](CCC(N)=O)NC(=O)[C@@H](NC(=O)[C@H](Cc1ccccc1)NC(=O)[C@H](CC(=O)O)NC(=O)[C@H](CCC(N)=O)NC(=O)[C@H](C)NC(=O)[C@H](CCCNC(=N)N)NC(=O)[C@H](CCCNC(=N)N)NC(=O)[C@H](CO)NC(=O)[C@H](CC(=O)O)NC(=O)[C@H](CC(C)C)NC(=O)[C@H](Cc1ccc(O)cc1)NC(=O)[C@H](CCCCN)NC(=O)[C@H](CO)NC(=O)[C@H](Cc1ccc(O)cc1)NC(=O)[C@H](CC(=O)O)NC(=O)[C@H](CO)NC(=O)[C@@H](NC(=O)[C@H](Cc1ccccc1)NC(=O)[C@@H](NC(=O)CNC(=O)[C@H](Cc1c[nH]cn1)NC(=O)[C@H](CO)NC(=O)[C@@H](N)Cc1c[nH]cn1)[C@@H](C)O)[C@@H](C)O)C(C)C)C(=O)N[C@H](C(=O)N[C@H](C(N)=O)[C@@H](C)O)[C@@H](C)O` [Peptide 29] the EC50 [1, 5] was 0.032 ± 0.003 nM and the EC50 [2, 6] was 0.08 ± 0.006 nM.

In the case of `CC[C@H](C)[C@H](NC(=O)CNC(=O)[C@H](CCC(N)=O)NC(=O)[C@H](CO)NC(=O)[C@@H](N)Cc1c[nH]cn1)C(=O)N[C@@H](Cc1ccccc1)C(=O)N[C@@H](Cc1ccccc1)C(=O)N[C@@H](CO)C(=O)N[C@@H](CC(=O)O)C(=O)N[C@@H](Cc1ccc(O)cc1)C(=O)N[C@@H](CO)C(=O)N[C@@H](CCCCN)C(=O)N[C@@H](Cc1ccc(O)cc1)C(=O)N[C@@H](CC(C)C)C(=O)N[C@@H](CC(=O)O)C(=O)N[C@@H](CO)C(=O)N[C@@H](CCCNC(=N)N)C(=O)N[C@@H](CCCNC(=N)N)C(=O)N[C@@H](C)C(=O)N[C@@H](CCC(N)=O)C(=O)N[C@@H](CC(=O)O)C(=O)N[C@@H](Cc1ccccc1)C(=O)N[C@H](C(=O)N[C@@H](CCC(N)=O)C(=O)N[C@@H](Cc1c[nH]c2ccccc12)C(=O)N[C@@H](CC(C)C)C(=O)N[C@@H](CCSC)C(=O)N[C@@H](CC(N)=O)C(=O)N[C@H](C(N)=O)[C@@H](C)O)C(C)C` [Peptide 30] (H-HSQGIFFSDYSKYLDSRRAQDFVQWLMNT-NH2), the EC50 [1, 5] is reported as 0.026 ± 0.004 nM and the EC50 [2, 6] is reported as over 200 nM.

In the case of `CSCC[C@H](NC(=O)[C@H](CC(=O)O)NC(=O)[C@H](CC(C)C)NC(=O)[C@H](Cc1ccc(O)cc1)NC(=O)[C@H](CCCCN)NC(=O)[C@H](CO)NC(=O)[C@H](Cc1ccc(O)cc1)NC(=O)[C@H](CC(=O)O)NC(=O)[C@H](CO)NC(=O)[C@@H](NC(=O)[C@H](Cc1ccccc1)NC(=O)[C@@H](NC(=O)CNC(=O)[C@H](CCC(N)=O)NC(=O)[C@H](CO)NC(=O)[C@@H](N)Cc1c[nH]cn1)[C@@H](C)O)[C@@H](C)O)C(=O)N[C@@H](CCC(N)=O)C(=O)N[C@@H](CCCNC(=N)N)C(=O)N[C@@H](C)C(=O)N[C@@H](Cc1c[nH]cn1)C(=O)N[C@@H](CC(=O)O)C(=O)N[C@@H](Cc1ccccc1)C(=O)N[C@H](C(=O)N[C@@H](CCC(N)=O)C(=O)N[C@@H](Cc1c[nH]c2ccccc12)C(=O)N[C@@H](CC(C)C)C(=O)N[C@@H](CCSC)C(=O)N[C@@H](CC(N)=O)C(=O)N[C@H](C(N)=O)[C@@H](C)O)C(C)C` [Peptide 32], the EC50 [1, 5] is reported as 0.014 ± 0.001 nM and the EC50 [2, 6] is reported as 0.022 ± 0.001 nM.

`CSCC[C@H](NC(=O)[C@H](CCCNC(=N)N)NC(=O)[C@H](CO)NC(=O)[C@H](CC(=O)O)NC(=O)[C@H](CC(C)C)NC(=O)[C@H](Cc1ccc(O)cc1)NC(=O)[C@H](CCCCN)NC(=O)[C@H](CO)NC(=O)[C@H](Cc1ccc(O)cc1)NC(=O)[C@H](CC(=O)O)NC(=O)[C@H](CO)NC(=O)[C@@H](NC(=O)[C@H](Cc1ccccc1)NC(=O)[C@@H](NC(=O)CNC(=O)[C@H](CCC(N)=O)NC(=O)[C@H](CO)NC(=O)[C@@H](N)Cc1c[nH]cn1)[C@@H](C)O)[C@@H](C)O)C(=O)N[C@@H](C)C(=O)N[C@@H](Cc1ccc(O)cc1)C(=O)N[C@@H](CC(=O)O)C(=O)N[C@@H](Cc1ccccc1)C(=O)N[C@H](C(=O)N[C@@H](CCC(N)=O)C(=O)N[C@@H](Cc1c[nH]c2ccccc12)C(=O)N[C@@H](CC(C)C)C(=O)N[C@@H](CCSC)C(=O)N[C@@H](CC(N)=O)C(=O)N[C@H](C(N)=O)[C@@H](C)O)C(C)C` [Peptide 33] (H-HSQGTFTSDYSKYLDSRMAYDFVQWLMNT-NH2) showed an EC50 [1, 5] of 0.079 ± 0.033 nM and an EC50 [2, 6] of 0.059 ± 0.003 nM.

For `CC(C)C[C@H](NC(=O)[C@H](Cc1ccc(O)cc1)NC(=O)[C@H](CCCCN)NC(=O)[C@H](CO)NC(=O)[C@H](Cc1ccc(O)cc1)NC(=O)[C@H](CC(=O)O)NC(=O)[C@H](CO)NC(=O)[C@H](Cc1ccccc1)NC(=O)[C@H](Cc1ccccc1)NC(=O)[C@@H](NC(=O)CNC(=O)[C@H](CCC(N)=O)NC(=O)[C@H](CO)NC(=O)[C@@H](N)Cc1c[nH]cn1)[C@@H](C)O)C(=O)N[C@@H](CC(=O)O)C(=O)N[C@@H](CO)C(=O)N[C@@H](CCCNC(=N)N)C(=O)N[C@@H](CCCNC(=N)N)C(=O)N[C@@H](C)C(=O)N[C@@H](CCC(N)=O)C(=O)N[C@@H](CC(=O)O)C(=O)N[C@@H](Cc1ccccc1)C(=O)N[C@H](C(=O)N[C@@H](CCC(N)=O)C(=O)N[C@@H](Cc1c[nH]c2ccccc12)C(=O)N[C@@H](CC(C)C)C(=O)N[C@@H](CC(C)C)C(=O)N[C@@H](CCC(=O)O)C(=O)N[C@H](C(N)=O)[C@@H](C)O)C(C)C` [Peptide 34] (H-HSQGTFFSDYSKYLDSRRAQDFVQWLLET-NH2), the EC50 [1, 5] was 0.027 ± 0.005 nM and the EC50 [2, 6] was 51.9 ± 57.7 nM.

In the case of `CCCCCCCCCCCCCCCC(=O)N[C@@H](CCC(=O)N[C@@H](CCC(=O)NCCCC[C@H](NC(=O)[C@H](CC(=O)O)NC(=O)[C@H](CO)NC(=O)[C@H](CC(C)C)NC(=O)[C@H](Cc1ccccc1)NC(=O)[C@@H](NC(=O)CNC(=O)[C@H](CCC(N)=O)NC(=O)[C@@H](CO)NC(=O)[C@@H](N)Cc1c[nH]cn1)[C@@H](C)O)C(=O)N[C@@H](CO)C(=O)N[C@@H](CCCCN)C(=O)N[C@@H](CC(C)C)C(=O)N[C@@H](CC(C)C)C(=O)N[C@@H](CC(=O)O)C(=O)N[C@@H](CO)C(=O)N[C@@H](CCCNC(=N)N)C(=O)N[C@@H](CCCNC(=N)N)C(=O)N[C@@H](C)C(=O)N[C@@H](CCC(N)=O)C(=O)N[C@@H](CC(=O)O)C(=O)N[C@@H](Cc1ccccc1)C(=O)N[C@H](C(=O)N[C@@H](CCC(N)=O)C(=O)N[C@@H](Cc1c[nH]c2ccccc12)C(=O)N[C@@H](CC(C)C)C(=O)N[C@@H](CCSC)C(=O)N[C@@H](CCC(N)=O)C(=O)N[C@H](C(N)=O)[C@@H](C)O)C(C)C)C(=O)O)C(=O)O` [Peptide 37] (H-H[dS]QGTFLSDK([γGlu-γGlu-Palmitoyl])SKLLDSRRAQDFVQWLMQT-NH2; N-terminus assumed), the EC50 ([1]; Table 3, engineered versus parent peptides, read-out: EC50 hGCGR) is reported as 0.037 ± 0.004 nM and the EC50 ([2]; Table 3, engineered versus parent peptides, cAMP accumulation, read-out: EC50 hGLP1) is reported as 23.5 ± 7.6 nM.

With HSVGNFWSDYSKYLDSRRAQDFVQWLMLT-NH2 [Peptide 1] the EC50 GCGR (nM); cAMP assay on CHO-JumpIn cells with human GCGR [3] was 8.45 nM and the EC50 GLP1R (nM); cAMP assay on CHO-JumpIn cells with human GLP1R [4] was 16.7 nM.

For HSQGTFTSDYSKYLDSLMAQDFVQWLMST-NH2 [Peptide 5], the EC50 GCGR (nM); cAMP assay on CHO-JumpIn cells with human GCGR [3] was 0.025 nM and the EC50 GLP1R (nM); cAMP assay on CHO-JumpIn cells with human GLP1R [4] was 0.133 nM.

HSQGTFTSDYIKLLDSRRAQDFVQWLMNT-NH2 [Peptide 7] showed an EC50 GCGR (nM); cAMP assay on CHO-JumpIn cells with human GCGR [3] of 0.301 nM and an EC50 GLP1R (nM); cAMP assay on CHO-JumpIn cells with human GLP1R [4] of 78.3 nM.

For HSQGTFTSDYSKYLDELRAYDFVQWLMNT-NH2 [Peptide 10], the EC50 GCGR (nM); cAMP assay on CHO-JumpIn cells with human GCGR [3] was 0.057 nM and the EC50 GLP1R (nM); cAMP assay on CHO-JumpIn cells with human GLP1R [4] was 0.038 nM.

HSQGTFTSDYSKYLDSRRAHDFVQWLLNT-NH2 [Peptide 11] gave an EC50 GCGR (nM); cAMP assay on CHO-JumpIn cells with human GCGR [3] of 0.018 nM and an EC50 GLP1R (nM); cAMP assay on CHO-JumpIn cells with human GLP1R [4] of 0.018 nM.

In the case of ASMFTFFSDYSKYLDSRRAQDFVQWLMLT-NH2 [Peptide 15], the EC50 GLP1R (nM); cAMP assay on CHO-JumpIn cells with human GLP1R [4] is reported as over 200 nM.
